In the test the target is human recombinant ATX (Homo sapiens, UniProt Q13822). The test is described as follows: Autotaxin (ATX) activity Quanta Red assay. Type of test: biochemical. In a few lines:
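Recombinant human ATX reaction stopped after 2 h with Quanta Red stop solution; fluorescence read at […]. Controls with DMSO, with and without ATX; IC50 in duplicate.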

Each structure is given as a SMILES string. Read-outs that look alike come from different tables or passages of the source.

Experimental findings from patent US11453666B2, “Autotaxin inhibitory compounds” (Cancer Research Technology Limited, priority 2015, dated 2022) are described below.

For `COc1ccc(Cn2c(CCC(=O)Nc3ccc(F)cc3)nc3cccnc32)cc1` [Example 227, N-(4-Fluoro-phenyl)-3-[3-(4-methoxy-benzyl)-3H-imidazo[4,5-b]pyridin-2-yl]-propionamide], under “Table 2: additional compounds tested for ATX activity (Quanta Red Assay), read-out: Activity”, the IC50 was determined as 3830 nM.
For the compound `C[C@H](NC(=O)CCc1nc2cccnc2n1Cc1ccc(F)cc1)c1ccc(N2CCCCCC2)cc1` [Example 178, N-[(S)-1-(4-Azepan-1-yl-phenyl)-ethyl]-3-[3-(4-fluoro-benzyl)-3H-imidazo[4,5-b]pyridin-2-yl]-propionamide], under “read-out: Activity (ATX activity, Quanta Red assay; IC50)”, the IC50 turned out to be 3 nM.
